Measured values reported in patent US20240285700A1, “COMBINATION OF AN ONCOLYTIC VIRUS, AN ANTI-PD-1 INHIBITOR AND AN ACTIVATOR OF THE INNATE IMMUNE SYSTEM FOR USE IN THE TREATMENT OF PROSTATE CANCER” (priority 2021, published 2024).
Entries after “also recorded” stand apart in the source; their conditions may differ. Where two headings read alike, the source gives them in different places.

Tests used:
lethal virus infection = test: protection against lethal virus infection in mice; format: in vivo; settings: not published
From the text: Following advanced experiment on carbohydrate chemistry at the Institute of Wood Chemistry at the University of Uppsala, the inventor was able to provide a water soluble, stimulatory aminated ß(1,3) glucan by treatment of natural, insoluble ß(1,3) with chloroacetaldehyde dimethyl acetal followed by reductive amination (3). The aminated ß(1,3) glucan derivative activated macrophages and thereby protected against otherwise lethal bacterial peritonitis in mice (4), as well as lethal virus infection in mice (not published).

Meth A sarcoma = Meth A sarcoma implanted in the skin of mice, glucan treatment; format: in vivo, hybrid CB6 F1 (Balb/c×C 57131/6) mice
Procedure: Meth A sarcoma was inoculated in the skin of hybrid CB6 F1 (Balb/c×C 57131/6) and grew progressive in immunized animals. […] When 5 mg of pure water-soluble aminated ß(1,3) glucan was injected intravenously or intraperitoneally on day 7, there was an almost immediate visible effect.

sarcoma SA-1 = sarcoma SA-1 in syngeneic mice, glucan treatment; format: in vivo, A strain mice
From the text: To decide whether the ß(1,3) glucan regression was peculiar to the Meth A tumor, we also performed experiments with sarcoma SA-1, syngeneic in A strain mice.

macrophages = settings: more than forty polysaccharides tested; cited from earlier work
[1] = test system: lethal bacterial peritonitis; settings: mice, cited from earlier work

aminated ß(1,3) glucan
protection against lethal virus infection (lethal virus infection): protected
tumor appearance 1 hour after injection (Meth A sarcoma; 5 mg intravenously on day 7, saline tumors reddish and bulging): collapsed and whitish-grey
histological examination of tumor site (Meth A sarcoma; glucan-treated animals): acute inflammation around the tumor
effect on tumor in non-immunized animals or treated on day 1, 3 (Meth A sarcoma; non-immunized animals, or treatment on day 1, 3): little or no effect
condition of the animals after 200 days (Meth A sarcoma; one injection on day 7): unaffected and vital
tumor at day 18-21 after inoculation (Meth A sarcoma; one injection on day 7 (5 mg i.v. or i.p.)): No visible tumor; also recorded: completely replaced by scar tissue
effect on tumor in TxB animals (Meth A sarcoma; thymectomized, x-ray irradiated and bonemarrow transplanted, day 8-14): no effect
cases in which tumors reappeared and resumed growth (sarcoma SA-1; after 18-21 days): about one third
tumor regression compared with Meth A results (sarcoma SA-1; sarcoma SA-1, A strain mice): essentially identical
ability to stimulate macrophages in vitro (macrophages): stimulatory
protection against otherwise lethal bacterial peritonitis [1]: protected
protection against otherwise lethal bacterial peritonitis ([1]; listed as ß(1,3) glucan): sufficient to prevent a lethal outcome
